Assay results: patent US20050069887A1, “Dna synthesis promoters dna polymerase-associated factors and utilization thereof” (priority 2001, published 2005)

Target: T1, nPfu DNA polymerase (Pyrococcus furiosus, UniProt P61875)
T1 construct: α-Type Enzyme (Native Pfu); purchased STRATAGENE
T1 sequence (P61875 1-775): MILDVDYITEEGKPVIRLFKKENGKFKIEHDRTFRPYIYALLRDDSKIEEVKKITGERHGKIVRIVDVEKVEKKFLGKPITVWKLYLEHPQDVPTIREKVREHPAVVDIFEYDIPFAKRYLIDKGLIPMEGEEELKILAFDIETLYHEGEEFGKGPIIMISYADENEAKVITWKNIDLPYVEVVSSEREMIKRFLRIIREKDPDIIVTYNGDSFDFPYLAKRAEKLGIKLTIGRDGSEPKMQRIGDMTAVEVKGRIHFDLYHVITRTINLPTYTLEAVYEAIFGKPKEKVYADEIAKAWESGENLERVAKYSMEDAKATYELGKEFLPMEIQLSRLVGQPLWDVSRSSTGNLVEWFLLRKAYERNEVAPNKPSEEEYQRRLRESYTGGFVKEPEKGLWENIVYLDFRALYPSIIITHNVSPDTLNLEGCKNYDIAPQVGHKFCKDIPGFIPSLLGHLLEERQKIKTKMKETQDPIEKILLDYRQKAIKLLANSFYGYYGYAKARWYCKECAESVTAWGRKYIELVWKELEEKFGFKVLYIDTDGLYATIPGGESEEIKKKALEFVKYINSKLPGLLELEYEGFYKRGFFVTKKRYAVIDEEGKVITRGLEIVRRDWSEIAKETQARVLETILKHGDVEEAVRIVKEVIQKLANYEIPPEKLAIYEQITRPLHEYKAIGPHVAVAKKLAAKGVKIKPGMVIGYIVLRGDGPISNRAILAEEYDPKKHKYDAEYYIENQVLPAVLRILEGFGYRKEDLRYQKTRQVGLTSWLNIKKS
Assay: PCR using nPfu with oxalate ion and betaine (Example 2-2)
Assay type: biochemical
Conditions: 2 mM potassium oxalate, FIG. 12
Experimental: Oxalate ion and betaine were investigated for their synergistic effectiveness in amplification of a target DNA which cannot be usually amplified by PCR using nPfu polymerase. Potassium oxalate was added to the PCR buffer (20 mM Tris-HCl(pH: 8.75), 10 mM KCl, 10 mM (NH4)2SO4, 2 mM MgSO41 0.1% Triton X-100, 100 μg/ml BSA) supplied with nPfu (STRATAGENE) to attain a final concentration of 2 mM. Also used were 0.2 mM dNTPs, 0.3 μM of a pair of primers of SEQ ID Nos:16 and 17, and 2.5 U nPfu DNA polymerase. 20 ng of genomic DNA derived from human cell line K562 was used as a template. This reaction mixture was subjected to PCR by using GeneAmp2400 (PE Applied Biosystems) to investigate the influence of varying the concentration of betaine added on the PCR results. The PCR conditions were as follows: 1 preliminary cycle of 94° C. for 2 minutes, and then 35 cycles of 94° C. for 15 seconds, 60° C. for 30 seconds and 68° C. for 8.5 minutes.

C[N+](C)(C)CC(=O)[O-] [betaine, trimethylglycine]
amplification of target DNA: amplification of the target DNA was observed
